Laboratory results from article PMC11284787, “Ligand-Directed Labeling of the Adenosine A1 Receptor in Living Cells” (Journal of Medicinal Chemistry, 2024).

Experiments:
SNAP-A1AR = test system: T1, SNAP-A1AR; assay: Confocal A1AR internalisation and Rab5 immunolabelling; assay type: cell-based, human; details: 10 μM agonist 2 h; cells prelabeled with 30 nM 11
T1 construct: expressed in transfected cells; host or cells: HEK293T, transient transfection (FuGENE HD)
Source text: A natural concern would be the potential for the covalently transferred fluorophore to prevent access of ligands to the orthosteric binding site of the labeled receptor. To address this question, we employed probe 11 to visualize the internalization pathway of the hA1AR by confocal microscopy. […] Cells were immunolabeled with the Anti-Rab5 monoclonal antibody and visualized by treatment with AF488-conjugated secondary antibody (middle frames, green channel). Right-hand frames show merged images of both magenta and green channels. […] The confocal images are representative of images acquired from three independent experiments. […] 37 °C 5% CO2. […] […] at 37 °C, 5% CO2. […] Cells were […] […] Cells were washed 3x 5 min with PBS.

NL-hA1AR = biological target: T2, NL-hA1AR (Homo sapiens, UniProt P30542); assay: NanoBRET dissociation kinetics, NL-hA1AR HEK293T cells; assay type: binding; details: NL-hA1AR HEK293T cells, CA200645 preincubated 2 h
T2 construct: expressed in transfected cells
T2 sequence (P30542 1-326): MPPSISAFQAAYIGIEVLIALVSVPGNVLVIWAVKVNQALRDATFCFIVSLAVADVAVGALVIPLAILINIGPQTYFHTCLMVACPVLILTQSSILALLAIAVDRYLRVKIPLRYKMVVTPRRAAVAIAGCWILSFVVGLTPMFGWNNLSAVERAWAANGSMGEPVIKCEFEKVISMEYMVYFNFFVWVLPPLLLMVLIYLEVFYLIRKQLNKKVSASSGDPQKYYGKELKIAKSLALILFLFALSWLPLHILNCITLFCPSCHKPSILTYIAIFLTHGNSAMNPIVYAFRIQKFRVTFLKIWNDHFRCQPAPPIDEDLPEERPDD
Protocol: Figure 3 Molecular pharmacology and biochemical characterization of 11 and 12. NanoBRET ligand-binding data were measured in HEK293 cells stably expressing the human NL-A1AR (A–C) or rat NL-A1AR (D–F). […] Data were normalized to maximal BRET signals in the absence of unlabeled competing ligands (total binding, TB). (C, F) NanoBRET dissociation kinetics experiments with 11 (SulfoCy5) performed in human and rat NL-A1AR HEK293T cells, respectively. Cells were treated with 250 nM 11 (SulfoCy5, lilac open circles) for 5 h and CA200645 (black open triangles) for 2 h. […] TS-SNAP-A1AR was purified and separated on an SDS-PAGEgel gel, and direct Cy5 fluorescence was visualized using in-gel fluorescence. […]
The small reduction in the BRET signal observed toward the end of the reads could be mostly likely ascribed to substrate (furimazine) consumption. […] To confirm covalent labeling of A1AR by 11 and 12, HEK293G cells stably expressing a Twin-Strep-SNAP-A1AR(TS-SNAP-A1R) construct were treated with 11 or 12 prior to purification, separation by sodium dodecyl sulfate-polyacrylamide gel electrophoresis (SDS-PAGE) and visualization of labeled samples by in-gel fluorescence (Figure 3G). […]
37 °C for kinetic binding experiments. Emissions were read at 420 nm (80 nm bandpass; […]

Row | Molecule | localization of SulfoCy5-labeled SNAP-A1AR at the plasma membrane after agonist (SNAP-A1AR) | time for BRET signal to return to baseline after addition of 10 μM DPCPX (NL-hA1AR) [min]
1 | OC[C@H]1O[C@@H](n2cnc3c(NC4CCCC4)nc(Cl)nc32)[C@H](O)[C@@H]1O [CCPA, 2-chloro-N^6-cyclopentyladenosine] | markedly reduced | –
2 | CA200645 [reference compound] | – | ≤ 4.7
